Here are results for 15 compounds from patent US6562825B1, “Piperazine derivatives as modulators of chemokine receptor activity” (Astrazeneca UK Limited, priority 1999, dated 2003).

Structures can show the parent of a compound that is named as a salt.

As for `CN(C)CCN(C)C(=O)COc1cc(Cl)ccc1C(=O)NCCN1CCN(Cc2ccc(Cl)c(Cl)c2)CC1`, the melting point (in general, the temperature, or range, at which the solid turns liquid) was in the range of 220 to 222 °C.
Under `CN(C)C(=O)COc1cc(Cl)ccc1C(=O)NCCN1CCN(Cc2ccc(Cl)c(Cl)c2)CC1` (as salt: hydrochloride) [Example 3, 4-Chloro-N-{2-[4-(3,4-dichlorobenzyl)-1-piperazinyl]ethyl}-2-[2-(dimethylamino)-2-oxoethoxy]benzamide dihydrochloride] stands 162 to 163 °C.
In turn, `CC(c1ccc(Cl)cc1)N1CCN(CCNC(=O)c2ccc(Cl)cc2OCC(=O)N(C)C)CC1` (stereo not drawn) (as salt: hydrochloride) [Example 9, 4-Chloro-N-(2-{4-[1-(4-chlorophenyl)ethyl]-1-piperazinyl}ethyl)-2-[2-(dimethylamino)-2-oxoethoxy]benzamide hydrochloride] had a melting point of 216 to 217 °C.
Under `CCN(CC)C(=O)COc1cc(Cl)ccc1C(=O)NCCN1CCN(Cc2ccc(Cl)c(Cl)c2)CC1` (as salt: hydrochloride) [Example 10, dihydrochloride] stands 185 to 188 °C; under `CN(C)C(=O)COc1cc(Cl)ccc1C(=O)N(C)CCN1CCN(Cc2ccc(Cl)c(Cl)c2)CC1` (as salt: hydrochloride) [Example 13, 4-Chloro-N-{2-[4-(3,4-dichlorobenzyl)-1-piperazinyl]ethyl}-2-[2-dimethylamino)-2-oxoethoxy]-N-methylbenzamide trihydrochloride], 252 to 253 °C; under `CN(C)C(=O)COc1cc(Cl)ccc1C(=O)NCCN1CCN(C(c2ccccc2)c2ccccc2)CC1` (as salt: hydrochloride) [Example 14, N-[2-(4-Benzhydryl-1-piperazinyl)ethyl]-4-chloro-2-[2-(dimethylamino)-2-oxoethoxy]benzamide trihydrochloride], 228 to 229 °C.
Compound `CC1CN(Cc2ccc(Cl)c(Cl)c2)C(C)CN1CCNC(=O)c1ccc(Cl)cc1OCC(=O)N(C)C` (stereo not drawn) (as salt: hydrochloride) [Example 16, E-4-Chloro-N-{2-[4-(3,4-dichlorobenzyl)-2,5-dimethyl-1-piperazinyl]ethyl}-2-[2-(dimethylamino)-2-oxoethoxy]benzamide dihydrochloride] gave a melting point of 220 to 221 °C.
`CN(C)C(=O)COc1cc(Cl)ccc1C(=O)NCCN1CCN(CCc2ccccc2)CC1` [Example 1, 4-Chloro-2-[2-(dimethylamino)-2-oxoethoxy]-N-[2-(4-phenethyl-1-piperazinyl)ethyl]benzamide]: the melting point was in the range of 159 to 160 °C.
`O=C(O)COc1cc(Cl)ccc1C(=O)NCCN1CCN(Cc2ccc(Cl)c(Cl)c2)CC1` [Example 2, 2-{5-Chloro-2-[({2-[4-(3,4-dichlorobenzyl)-1-piperazinyl]ethyl}amino)carbonyl]phenoxy}acetic acid] had a melting point of 118 to 120 °C.
As for `CC(CO)NC(=O)COc1cc(Cl)ccc1C(=O)NCCN1CCN(Cc2ccc(Cl)c(Cl)c2)CC1` (stereo not drawn) [Example 4, 4-Chloro-N-{2-[4-(3,4-dichlorobenzyl)-1-piperazinyl]ethyl}-2-{2-[(2-hydroxy-1-methylethyl)amino]-2-oxoethoxy}benzamide], the figure is 115 to 116 °C; as for `CC(C)(CO)NC(=O)COc1cc(Cl)ccc1C(=O)NCCN1CCN(Cc2ccc(Cl)c(Cl)c2)CC1` [Example 5, 4-Chloro-N-{2-[4-(3,4-dichlorobenzyl)-1-piperazinyl]ethyl}-2-{2[(2-hydroxy-1,1-dimethylethyl)amino]-2-oxoethoxy}benzamide], 77 to 78 °C; as for `CNC(=O)COc1cc(Cl)ccc1C(=O)NCCN1CCN(Cc2ccc(Cl)c(Cl)c2)CC1` [Example 6, 4-Chloro-N-{2-[4-(3,4-dichlorobenzyl)-1-piperazinyl]ethyl}-2-[2-(methylamino)-2-oxoethoxy]benzamide], 137 to 138 °C.
In the case of `O=C(NCCN1CCN(Cc2ccc(Cl)c(Cl)c2)CC1)c1ccc(Cl)cc1OCC(=O)N1CCCC1` [Example 7, 4-Chloro-N-{2-[4-(3,4-dichlorobenzyl)-1-piperazinyl]ethyl}-2-[2-oxo-2-(1-pyrrolidinyl)ethoxy]benzamide], the melting point is 157 to 158 °C.
In the case of `NC(=O)COc1cc(Cl)ccc1C(=O)NCCN1CCN(Cc2ccc(Cl)c(Cl)c2)CC1` [Example 8, 2-(2-Amino-2-oxoethoxy)-4-chloro-N-{2-[4-(3,4-dichlorobenzyl)-1-piperazinyl]ethyl}benzamide], the melting point lay within 120 to 122 °C.
Regarding `O=C(O)CNC(=O)COc1cc(Cl)ccc1C(=O)NCCN1CCN(Cc2ccc(Cl)c(Cl)c2)CC1` [Example 12, 2-[(2-{5-Chloro-2-[({2-[4-(3,4-dichlorobenzyl)-1-piperazinyl]ethyl}amino)carbonyl]phenoxy}acetyl)amino]acetic acid], the melting point was in the range of 214 to 216 °C.
